Laboratory results as given in patent US5322854A, “Reveromycin A, method for preparing the same, and antitumor agent and antifungal agent comprising the same” (Rikagaku Kenkyusho, priority 1990, dated 1994).

Tests used:
TGF-α = conditions: background art; cited from earlier work
[1] = background art; cited from earlier work
mouse epithelial cells = assay: Cell toxicity in mouse epithelial cells; assay type: cell-based; conditions: 50 μg/ml
src^ts -NRK cells = assay: Cell toxicity in src^ts-NRK cells; assay type: cell-based, Rat; conditions: 50 μg/ml, 32° C.
Acute toxicity = conditions: mouse, in vivo, iv

SMILES: O=CN/C=C/c1cc(O)ccc1O [Erbstatin]
- potency (TGF-α): not sufficiently potent
- effect in blood [1]: lose their effects in blood

SMILES: CCCC[C@@]1(OC(=O)CCC(=O)O)CC[C@]2(CC[C@H](C)[C@@H](C/C=C(C)/C=C/[C@H](O)[C@@H](C)/C=C/C(=O)O)O2)O[C@H]1/C=C/C(C)=C/C(=O)O [Reveromycin A]
- cell toxicity (mouse epithelial cells): observed
- cell toxicity (src^ts -NRK cells): observed
- Solubility (Solubility; aqueous acidic solution): insoluble
- Solubility (Solubility; dimethylsulfoxide, ethyl acetate, and methanol): easily soluble
- LD50 (Acute toxicity): ≥ 100 mg/kg
